# Source: article PMC8344233, “Anticancer activity and toxicity of new quaternary ammonium geldanamycin derivative salts and their mixtures with potentiators” (Journal of Enzyme Inhibition and Medicinal Chemistry, 2021)
# Assays:
# SKBR-3 = test: SRB cytotoxicity assay, SKBR-3 (2nd panel); format: cell-based, human; conditions: for IC50: Homo sapiens, SK-BR-3, ± SD, SRB, 72 h, mixtures equimolar 1:1; for selectivity index SIHDF (SKBR-3): IC50 normal cell line HDF/IC50 SKBR-3
# Method: (§1) Human cancer cells SKBR-3 (human breast cancer cell line) and SKOV-3 (ovarian cancer cell line) were cultured in McCoy’s Modified Medium. […]
# (§2) Medium. Human Dermal Fibroblasts cell line (HDF) was cultured in Fibroblast Basal Medium.
# (§3) Each medium was supplemented with 10% fetal bovine serum, 1% L-glutamine, and 1% penicillin/streptomycin solution. The cell lines were kept in the incubator at 37◦C. The optimal plating density of cell lines was determined to be 5 × 104. All the cell lines and mediums were obtained from American Type Culture Collection (ATCC) supplied by LGC-Standards. The protein-staining SRB (Sigma-Aldrich) microculture colorimetric assay, developed by the National Cancer Institute (USA) for in vitro antitumor screening was used in this study, to estimate the cell number by providing a sensitive index of total cellular protein content, being linear to cell density. The monolayer cell culture was trypsinized and the cell count was adjusted to 5 × 10^4 cells. To each well of the 96 well microtiter plate, 0.1 mL of the diluted cell suspension (approximately […]) was added. After 24 hours, when a partial monolayer was formed, the supernatant was washed out and 100 μL of six different compound concentrations (0.1, 0.2, 1, 2, 10, and 20 μM) were added to the cells in microtitre plates. The tested compounds were dissolved in DMSO (containing 10 % of water) (100 μL) and the […]
# (§4) lines. The cells were exposed to compounds for 72 hours at 37 °C in a humidified atmosphere (90% RH) containing 5% CO2. After that, 25 μL of 50 % trichloroacetic acid was added to the wells and the plates were incubated for 1 hour at 4◦C. The plates were then washed out with the distilled water to remove traces of medium and next dried by the air. The air-dried plates were stained with 100 μL of 0.4% sulforhodamine B (prepared in 1 % acetic acid) and kept for 30 minutes at room temperature. The unbound dye was removed by rapidly washing with 1% […]
# (§5) acetic acid and then air dried overnight. The protein-bound dye was dissolved in 100 μL of 10 mM unbuffered Tris base (pH 10.5) for optical density determination at 490 nm. All cytotoxicity experiments were performed three times. Cell survival was measured as the percentage absorbance compared to the control (nontreated cells). Cytarabine (ara-C) and GDM were used as the internal standards. Additionally biological assays were performed in Human Dermal Fibroblasts cell line (HDF) in aim to evaluate cytotoxicity of GDM and its 1-13 analogs in healthy cells. SI indexes were calculated from equation SI = IC50 normal cell line HDF/IC50 respective cancerous cell line (Table 2). A beneficial SI > 1.0 indicates a compound with efficacy against tumor cell greater than the toxicity against normal cells. […]
# HDF = test: SRB cytotoxicity assay, human dermal fibroblasts HDF; format: cell-based; conditions: 72 h, ± SD, mixtures equimolar 1:1, read-out: IC50 HDF (toxicity in normal cells)
# Method: as §2, §3, §4, §5
# MDA-MB-231 = test: MTT cytotoxicity assay, MDA-MB-231 (1st panel); format: cell-based, human; conditions: for IC50: Homo sapiens, MDA-MB-231, ± SD, MTT, 72 h; for selectivity index SI (MDA-MB-231): IC50 normal cell line CCD39Lu/IC50 MDA-MB-231
# Method: (§6) Cell survival was measured as the percentage absorbance compared to the control (nontreated cells). […]
# (§7) SI indexes were calculated from equation SI = IC50 normal cell line HDF/IC50 respective cancerous cell line (Table 2). A beneficial SI > 1.0 indicates a compound with efficacy against tumor cell greater than the toxicity against normal cells.
# (§8) All experiments were carried out with human breast adenocarcinoma (MDA-MB-231 and MCF-7), hepatocellular carcinoma (HepG2), human cervical adenocarcinoma (HeLa) cancer cell lines, and human normal lung fibroblast (CCD39Lu) cell line. The cell line was purchased from the European Collection of Cells Cultures (ECACC, Salisbury, UK), and cultured in DMEM with phenol red supplemented with 10% (v/v) FBS, 1% (v/v) penicillin/streptomycin, and 1% (v/v) L-glutamine at 37 °C, in a humidified atmosphere containing 5% CO2.
# (§9) The tested compounds were dissolved in DMSO to the final concentration 10 mM and stored […]
# (§10) The cytotoxic effect of the tested compounds was determined by MTT assay. MDA-MB-231, MCF-7, HepG2, HeLa, and CCD39Lu cells were seeded in 96 wells plates at density 2x10^4 cells/well and incubated overnight under cell culture condition. Next, cells were treated with tested compounds at concentrations of 10 µM; 5 µM; 2.5 µM; 1.2 µM; 0.6 µM; 0.3 µM; 0.15 […]
# (§11) µM. Moreover, GDM (for MCF-7) and 8 (for MCF-7 and MDA-MB-231) due to high cytotoxicity, were additionally tested at a lower concentration range of 2.5 µM; 1.2 µM; 0.6 µM; 0.3 µM; 0.15µM; 0.07 µM; 0.03 µM. DMSO was used as a control, and the concentration […]
# (§12) Tested compounds were added to cells in the medium without phenol red. Cells were incubated 72 h at 37 °C in a humidified atmosphere containing 5% CO2.
# (§13) Then, the medium was aspirated and MTT solution at a concentration of 0.59 mg/mL in cell culture medium was added to each well. Plates were incubated for 1.5 hours at 37 °C, and then plates were centrifuged for 3 minutes. The formazan crystals were dissolved in 200 µl DMSO and plates were agitated on a plate shaker at 300 –500 rpm for 10 minutes. Absorbance at 570 nm was measured using a plate reader (Biotek Instruments, Elx -800). Data were normalized to the mean absorption of control cells. All experiments were performed at least three times. […]
# U-87 = test: SRB cytotoxicity assay, U-87 (2nd panel); format: cell-based, human; conditions: for IC50: Homo sapiens, U-87 MG, ± SD, SRB, 72 h; for selectivity index SIHDF (U-87): IC50 normal cell line HDF/IC50 U-87
# Method: U-87MG cells (glioblastoma cell line) were cultured in Eagle’s Minimal Essential Medium. Human Dermal Fibroblasts cell line (HDF) was cultured in Fibroblast Basal Medium.
# as §3, §4, §5
# PC-3 = test: SRB cytotoxicity assay, PC-3 (2nd panel); format: cell-based, human; conditions: for IC50: Homo sapiens, PC-3, ± SD, SRB, 72 h, mixtures equimolar 1:1; for selectivity index SIHDF (PC-3): IC50 normal cell line HDF/IC50 PC-3
# Method: as §2, §3, §4, §5
# A-549 = test: SRB cytotoxicity assay, A-549 (2nd panel); format: cell-based, human; conditions: for IC50: Homo sapiens, A549, ± SD, SRB, 72 h; for selectivity index SIHDF (A-549): IC50 normal cell line HDF/IC50 A-549
# Method: as §2, §3, §4, §5
# physchem = conditions: water, Solubility SH2O
# SKOV-3 = test: SRB cytotoxicity assay, SKOV-3 (2nd panel); format: cell-based, human; conditions: for IC50: Homo sapiens, SK-OV-3, ± SD, SRB, 72 h, mixtures equimolar 1:1; for selectivity index SIHDF (SKOV-3): IC50 normal cell line HDF/IC50 SKOV-3
# Method: as §1, §2, §3, §4, §5
# CCD39Lu = test: MTT cytotoxicity assay, normal lung fibroblasts CCD39Lu; format: cell-based; conditions: Fibroblast, ± SD, healthy human lung fibroblasts, 72 h, read-out: IC50 CCD39Lu (toxicity in normal cells)
# Method: as §6, §7, §8, §9, §10, §11, §12, §13
# HeLa = test: MTT cytotoxicity assay, HeLa (1st panel); format: cell-based, human; conditions: for IC50: Homo sapiens, HeLa, ± SD, MTT, 72 h; for selectivity index SI (HeLa): IC50 normal cell line CCD39Lu/IC50 HeLa
# Method: as §6, §7, §8, §9, §10, §11, §12, §13
# HepG2 = test: MTT cytotoxicity assay, HepG2 (1st panel); format: cell-based, human; conditions: for IC50: Homo sapiens, HepG2, ± SD, MTT, 72 h; for selectivity index SI (HepG2): IC50 normal cell line CCD39Lu/IC50 HepG2
# Method: as §6, §7, §8, §9, §10, §11, §12, §13
# MCF-7 = test: MTT cytotoxicity assay, MCF-7 (1st panel); format: cell-based, human; conditions: for IC50: Homo sapiens, MCF7, 72 h, ± SD, MTT, 72 h; for selectivity index SI (MCF-7): IC50 normal cell line CCD39Lu/IC50 MCF-7
# Method: as §6, §7, §8, §9, §10, §11, §12, §13
# cancer cell lines = test: Cytotoxicity, values summarised over several cancer cell lines; format: cell-based, human; conditions: Homo sapiens, approximate level over the three cancer cell lines; mixtures equimolar 1:1; read-out: IC50 in SKBR-3, SKOV-3 and PC-3
# Method: Human cancer cells SKBR-3 (human breast cancer cell line) and SKOV-3 (ovarian cancer cell line) were cultured in McCoy’s Modified Medium. Human cancer cells PC-3 (human prostate cancer cell line) were cultured in F-12K medium, as well as A549 cell line (lung cancer cell line). U-87MG cells (glioblastoma cell line) were cultured in Eagle’s Minimal Essential Medium. Human Dermal Fibroblasts cell line (HDF) was cultured in Fibroblast Basal Medium.
# as §3, §4
# acetic acid and then air dried overnight. The protein-bound dye was dissolved in 100 μL of 10 mM unbuffered Tris base (pH 10.5) for optical density determination at 490 nm. All cytotoxicity experiments were performed three times. Cell survival was measured as the percentage absorbance compared to the control (nontreated cells). Cytarabine (ara-C) and GDM were used as the internal standards. Additionally biological assays were performed in Human Dermal Fibroblasts cell line (HDF) in aim to evaluate cytotoxicity of GDM and its 1-13 analogs in healthy cells. SI indexes were calculated from equation SI = IC50 normal cell line HDF/IC50 respective cancerous cell line (Table 2). A beneficial SI > 1.0 indicates a compound with efficacy against tumor cell greater than the toxicity against normal cells.
# as §8, §9, §10
Compound,IC50 (SKBR-3) [µM],selectivity index SIHDF (SKBR-3) (SKBR-3),CC50 (HDF) [µM],IC50 (MDA-MB-231) [µM],selectivity index SI (MDA-MB-231) (MDA-MB-231),IC50 (PC-3) [µM],selectivity index SIHDF (PC-3) (PC-3),IC50 (SKOV-3) [µM],selectivity index SIHDF (SKOV-3) (SKOV-3),IC50 (CCD39Lu) [µM],IC50 (HeLa) [µM],selectivity index SI (HeLa) (HeLa),IC50 (HepG2) [µM],selectivity index SI (HepG2) (HepG2),IC50 (MCF-7) [µM],selectivity index SI (MCF-7) (MCF-7),other results
CO[C@H]1/C=C\C=C(/C)C(=O)NC2=CC(=O)C(NC3C[N+]4(Cc5ccc([N+](=O)[O-])o5)CCC3CC4)=C(C[C@@H](C)C[C@H](OC)[C@H](O)[C@@H](C)/C=C(\C)[C@@H]1OC(N)=O)C2=O (stereo partly drawn) [Compound 11],6.49 ± 0.07,1.22,7.91 ± 0.91,3.93 ± 1.6,> 2.54,6.22 ± 0.13,1.27,6.04 ± 0.38,1.31,> 10,8.91 ± 3.19,> 1.12,8.86 ± 0.17,> 1.13,4.67 ± 2,> 2.14,IC50 (U-87): 6.06 ± 0.58 µM; selectivity index SIHDF (U-87) (U-87): 1.31; IC50 (A-549): 6.83 ± 0.32 µM; selectivity index SIHDF (A-549) (A-549): 1.16; solubility (physchem): 2300 µg/mL
CO[C@H]1/C=C\C=C(/C)C(=O)NC2=CC(=O)C(NC3CCN(S(C)(=O)=O)CC3)=C(C[C@@H](C)C[C@H](OC)[C@H](O)[C@@H](C)/C=C(\C)[C@@H]1OC(N)=O)C2=O [Compound 7],,,,2.36 ± 0.35,5.34,,,,,12.6 ± 0.21,1.61 ± 0.61,7.83,1.68 ± 0.32,7.50,0.96 ± 0.51,13.13,
CO[C@H]1/C=C\C=C(/C)C(=O)NC2=CC(=O)C(NC3C[N+]4(Cc5ccsc5Br)CCC3CC4)=C(C[C@@H](C)C[C@H](OC)[C@H](O)[C@@H](C)/C=C(\C)[C@@H]1OC(N)=O)C2=O (stereo partly drawn) [Compound 12],8.49 ± 0.36,1.64,13.9 ± 0.42,5.01 ± 2.15,> 2.00,7.94 ± 0.03,1.75,8.02 ± 0.17,1.73,> 10,9.12 ± 1.81,> 1.10,> 10,> 1,2.65 ± 1.09,> 3.77,IC50 (U-87): 8.58 ± 0.19 µM; selectivity index SIHDF (U-87) (U-87): 1.62; IC50 (A-549): 8.94 ± 0.27 µM; selectivity index SIHDF (A-549) (A-549): 1.56; solubility (physchem): 4500 µg/mL
"COc1cccc2c1C(=O)c1c(O)c3c(c(O)c1C2=O)C[C@@](O)(C(=O)CO)C[C@@H]3O[C@H]1C[C@H](N)[C@H](O)[C@H](C)O1 [DOX, doxorubicin, reference compound]",0.72 ± 0.04,2.11,1.52 ± 0.03,,,0.68 ± 0.01,2.24,0.74 ± 0.06,2.05,,,,,,,,IC50 (cancer cell lines): ~0.7 µM
CO[C@H]1/C=C\C=C(/C)C(=O)NC2=CC(=O)C(NC3CCN(Cc4ccccc4)CC3)=C(C[C@@H](C)C[C@H](OC)[C@H](O)[C@@H](C)/C=C(\C)[C@@H]1OC(N)=O)C2=O [Compound 5],,,,2.28 ± 0.54,6.71,,,,,15.3 ± 0.12,1.56 ± 0.14,9.81,1.63 ± 0.49,9.39,1.84 ± 0.57,8.32,
CO[C@H]1/C=C\C=C(/C)C(=O)NC2=CC(=O)C(NC3CCC(O)CC3)=C(C[C@@H](C)C[C@H](OC)[C@H](O)[C@@H](C)/C=C(\C)[C@@H]1OC(N)=O)C2=O (stereo partly drawn) [Compound 4],,,,> 10,> 1,,,,,> 10,> 10,> 1,> 10,> 1,> 10,> 1,solubility (Water solubility SH2O): 40 µg/mL
CO[C@H]1/C=C\C=C(/C)C(=O)NC2=CC(=O)C(NC3CCN(C(C)=O)CC3)=C(C[C@@H](C)C[C@H](OC)[C@H](O)[C@@H](C)/C=C(\C)[C@@H]1OC(N)=O)C2=O [Compound 6],,,,3.16 ± 0.89,> 3.16,,,,,> 10,4.75 ± 0.35,> 2.11,3.38 ± 0.13,> 2.96,0.61 ± 0.14,> 16.39,
